Test results as given in patent US20080214606A1, “Methods for the Identification and Use of Compounds Suitable for the Treatment of Drug Resistant Cancer Cells” (The Government of the United States of America as …, priority 2004, published 2008).

Molecular target: ABCB1 (Homo sapiens, UniProt P08183)
Assay: Correlation of ABCB1 expression with drug sensitivity across the NCI-60
Experimental: Expression levels are measured by real-time quantitative RT-PCR using the LightCycler RNA Amplification SYBR Green kit and a LightCycler machine (Roche Biochemicals, Indianapolis, Ind.). Specific oligonucleotide probes are designed for each of the ABC transporters using DNAStar Primer Select (DNASTAR Inc.), and they may be synthesized at Lofstrand Laboratories (Gaithersburg, Md.). When possible, the amplicons are designed to encompass exon-intron boundaries to avoid amplification of genomic DNA. Since the Syber Green assay detects accumulation of double stranded DNA, primers are selected (from a battery consisting of about 200 primers) that amplified a single product of the correct size.
RT-PCR is carried out on 150 ng total RNA, in the presence of 250 nM specific primers. Following reverse transcription (20 min at 50° C.), the PCR reaction consists of 45 cycles of denaturation (15 sec at 95° C.), annealing (30 sec at 58° C.), and elongation (30 sec at 72° C.). No-template (water) reaction mixtures are prepared as negative controls.
During PCR amplification, fluorescence emission is measured and recorded in real time by the LightCycler. Crossing point values are calculated, using the LightCycler software package, by the Fit Points analysis method, with baseline fluorescence set at 1. The SyberGreen assay measures accumulation of double-stranded products, and the appearance of primer dimers limits quantitation at high cycle numbers. […] The raw results are expressed as number of cycles to reach the crossing point. If the desired product is not detected, the corresponding value is adjusted to crossing points indicating no expression. To assess the contribution of experimental artifacts, selected cell lines are assessed in replicate.
Both sets are available at http://discover.nci.nih.gov. The two are combined to form a joint dataset that includes 1429 compounds.
To determine quantitatively how well the 47 genes cluster the cell lines by their tissues of origin, a statistical method is employed wherein the kappa statistic is used to indicate how well the observed clusters correspond to the nine tissue-of-origin classifications. […] To control the overall false type 1 error rate, both a step-down procedure (Westfall and Young, 1993, Resampling-Based Multiple Testing: Examples and Methods for p-value Adjustment (New York: Wiley)) and a step-up procedure (Reiner et al., 2003, Bioinformatics 19:368-375) were employed to adjust for multiple testing of all 47 genes simultaneously. In the Benjamini-Hochberg procedure the p-values are computed in the standard way by permutation, assuming that all distributions are exchangeable: the number of values in the permuted data with correlations over a threshold, divided by the number of compounds and by the number of permutations. In this analysis, the False Discovery Rate (q-value) at which each compound would be declared was calculated using the step-up procedure for positively correlated test statistics (again true because all correlations being compared are computed against the same ABC gene): in this procedure the first q-value for the largest correlation is the Bonferroni-corrected p-value for that gene; then further q-values are calculated as qj=max(pj*1429/j, qj-1). This procedure limits the expected proportion of false positives in the list 1, . . . , j to at most qj.

Chain of ABCB1 (P08183 whole entry): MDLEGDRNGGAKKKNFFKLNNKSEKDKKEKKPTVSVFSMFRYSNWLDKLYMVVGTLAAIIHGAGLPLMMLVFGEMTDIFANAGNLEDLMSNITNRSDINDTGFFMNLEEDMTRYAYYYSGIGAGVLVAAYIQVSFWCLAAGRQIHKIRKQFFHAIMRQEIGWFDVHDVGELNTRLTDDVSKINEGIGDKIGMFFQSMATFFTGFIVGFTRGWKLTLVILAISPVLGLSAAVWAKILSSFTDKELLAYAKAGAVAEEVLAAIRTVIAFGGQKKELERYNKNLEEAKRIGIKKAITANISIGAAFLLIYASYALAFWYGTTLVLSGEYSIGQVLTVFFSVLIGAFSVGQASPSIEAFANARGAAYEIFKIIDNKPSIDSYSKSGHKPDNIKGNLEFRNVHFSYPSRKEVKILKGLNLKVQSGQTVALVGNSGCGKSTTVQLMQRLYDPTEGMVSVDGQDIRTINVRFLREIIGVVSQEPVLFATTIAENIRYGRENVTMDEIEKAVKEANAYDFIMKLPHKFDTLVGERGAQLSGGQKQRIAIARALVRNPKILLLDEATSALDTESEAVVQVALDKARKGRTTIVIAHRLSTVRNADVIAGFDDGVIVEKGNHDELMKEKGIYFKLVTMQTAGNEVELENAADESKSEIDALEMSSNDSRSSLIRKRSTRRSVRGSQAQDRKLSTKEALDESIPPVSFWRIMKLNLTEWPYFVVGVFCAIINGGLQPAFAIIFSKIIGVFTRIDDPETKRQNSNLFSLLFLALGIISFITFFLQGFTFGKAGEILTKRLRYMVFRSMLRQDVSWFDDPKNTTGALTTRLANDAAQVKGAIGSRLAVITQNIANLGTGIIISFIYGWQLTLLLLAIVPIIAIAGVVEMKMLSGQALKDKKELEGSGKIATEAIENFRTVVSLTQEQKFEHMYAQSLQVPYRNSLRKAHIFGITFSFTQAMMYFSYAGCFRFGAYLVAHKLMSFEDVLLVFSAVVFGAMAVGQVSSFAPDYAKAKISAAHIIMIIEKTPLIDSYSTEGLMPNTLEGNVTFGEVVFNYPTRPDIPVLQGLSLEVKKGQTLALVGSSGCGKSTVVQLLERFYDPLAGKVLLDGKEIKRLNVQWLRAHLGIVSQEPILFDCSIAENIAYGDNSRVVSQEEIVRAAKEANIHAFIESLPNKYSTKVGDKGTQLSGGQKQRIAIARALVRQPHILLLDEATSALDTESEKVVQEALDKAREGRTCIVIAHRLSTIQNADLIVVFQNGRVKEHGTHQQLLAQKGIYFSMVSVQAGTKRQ

| Compound | Pearson's Correlation Coeff | Correlation of antiproliferative activity with ABCB1 expression | Correlation |
| --- | --- | --- | --- |
| CCOc1cc2c(cc1O)C(=O)C[C@@H]1[C@@H]2CC[C@]2(C)[C@@H](O)CC[C@@H]12 [NSC679431] | 0.2672 |  |  |
| C[C@]12CC[C@@H]3c4cc(OCC(F)(F)F)c(O)cc4/C(=N/O)C[C@H]3[C@@H]1CC[C@@H]2O [NSC681683] | 0.2079 |  |  |
| N#Cc1c(N2CCN(c3ccc([N+](=O)[O-])cc3)CC2)[n+](=O)c2ccc(Cl)cc2n1[O-] [NSC688493] | 0.2012 |  |  |
| COc1ccc(O)c(/C=N/NC(=S)N2CCCCC2)c1 [NSC689529] | 0.3465 |  |  |
| O=[N+]([O-])c1ccc(O)c(/C=N/NC(=S)N2CCCCC2)c1 [NSC689530] | 0.3398 |  |  |
| Cc1cc(C)n(-c2nc3ccccc3c(=O)[nH]2)n1 [NSC691081] | 0.4305 |  |  |
| Cc1ccc2c(c1)-c1c(C#N)c(N)nc(-c3ccc(Cl)cc3)c1CCS2(=O)=O [NSC691578] | 0.2102 |  |  |
| O=C(NO)c1cccc(OCc2ccc(Br)cc2)c1 [NSC692756] | 0.4093 |  |  |
| O=[N+]([O-])C(=C\c1cccs1)/C(=C/c1cccs1)[N+](=O)[O-] [NSC693131] | 0.2788 |  |  |
| S=C(N/N=C\C=N/NC(=S)N1CCCCC1)N1CCCCC1 [NSC693323] | 0.3180 |  |  |
| c1ccc(/C(=N/Nc2ccccn2)c2cccnn2)cc1 [NSC693623] | 0.2952 |  |  |
| N#Cc1c(Nc2ccccc2)[n+]([O-])c2ccc(Cl)cc2[n+]1[O-] [NSC693869] | 0.2805 |  |  |
| Cl.Oc1c(CN2CCCC2)ccc2cccnc12 [NSC693871] | 0.6160 | 0.6811 |  |
| C[n+]1c2ccccc2n2c3ccccc3c(NCCCn3ccnc3)c(C#N)c21.Cc1ccc(S(=O)(=O)[O-])cc1 [NSC694268] |  |  | −0.5914 |
| C=C(C=O)c1c2c(nc3ccccc13)C(=O)c1ccccc1C2=O [NSC694489] | 0.3742 |  |  |
| O=C1c2ccccc2C(=O)c2c1nc1ccccc1c2-c1cncc(-c2c3c(nc4ccccc24)C(=O)c2ccccc2C3=O)c1 [NSC694490] | 0.2438 |  |  |
| COc1ccc2oc(S(=O)(=O)N3CC(CCl)c4ccc(N)cc43)cc2c1 (stereo not shown) [NSC696124] | 0.2104 |  |  |
| COc1ccc2oc(S(=O)(=O)N3CC(CCl)c4ccc([N+](=O)[O-])cc43)cc2c1 (stereo not shown) [NSC696992] | 0.2171 |  |  |
| CC(C)=CCCC(C)c1c(O)c(O)c(C)c2nc3ccccc3nc12 (stereo not shown) [NSC697120] | 0.4167 | 0.4435 |  |
| CC(C)=CCC[C@@H](C)C1=C(O)C(=O)C(C)=C(N)C1=O [NSC697125] | 0.5604 | 0.5358 |  |
| CNC1=C(C)C(=O)C(O)=C([C@H](C)CCC=C(C)C)C1=O [NSC697128] | 0.4568 | 0.4349 |  |
| CC(C)=CCC[C@@H](C)C1=C(O)C(Nc2ccccc2)=C(C)C(=O)C1=O [NSC697129] | 0.4854 | 0.4663 |  |
| CC(C)=CCC[C@@H](C)c1c2[nH]c3ccccc3sc-2c(C)c(=O)c1=O [NSC697130] | 0.4582 | 0.3925 |  |
| CC(C)=CCC[C@@H](C)C1=C(Nc2ccccc2F)C(=O)C(C)=C(O)C1=O [NSC697131] | 0.3514 | 0.3522 |  |
| CC(C)=CCC[C@@H](C)c1c2ncc[nH]c-2c(C)c(=O)c1O [NSC697135] | 0.4052 | 0.4249 |  |
| CC(C)=CCC[C@@H](C)C1=C(O)C(=O)C(C)=C(NC(C)c2ccccc2)C1=O (stereo partly shown) [NSC697137] | 0.3828 | 0.4295 |  |

| Compound | Pearson's Correlation Coeff | Correlation of antiproliferative activity with ABCB1 expression | Correlation |
| --- | --- | --- | --- |
| CC(C)=CCC[C@@H](C)C1=C(Nc2ccccc2Cl)C(O)=C(C)C(=O)C1=O [NSC697138] | 0.3551 |  |  |
| Oc1ccc2ccccc2c1-c1nnc(CCCCCCCCc2nnc(-c3c(O)ccc4ccccc34)o2)o1 [NSC697189] | 0.2621 |  |  |
| CC1(C)C2CC1C(C(O)C1c3cc(-c4ccccn4)ncc3C3CC1C3(C)C)c1cc(-c3ccccn3)ncc12 (stereo not shown) [NSC697653] | 0.1718 |  |  |
| CC(=O)O[C@H]1C#C/C=C\C#CC[C@@H]2C(=O)N(C(=O)OC(C)(C)C)[C@@H]12 [NSC697686] | 0.2297 |  |  |
| CCNc1nnc(-c2ccccc2Nc2ccccc2-c2nnc(NCC)s2)s1 [NSC698459] | 0.3095 |  |  |
| CN(C)c1nc(N(C)C)nc(N(C)C)n1 [NSC 13875] |  | 0.4856 |  |
| Oc1c(CN2CCN(c3ccccc3)CC2)cc(Br)c2cccnc12 [NSC 117028] |  | 0.3579 |  |
| C=C(C)[C@@H]1CCc2c(O)c(O)c(=O)cc(C)c2C1 [NSC 310618] |  | 0.3698 |  |
| O=C(O)Cc1cccc2c(=O)cc(-c3ccccc3)oc12 [NSC 347512] |  | 0.4109 |  |
| Br.CCN(CC)CC[n+]1ccc2c(C)c3[nH]c4ccccc4c3c(C)c2c1.[Br-] [NSC 353076] |  |  | −0.7983 |
| COc1cc2c(c(O)c1O)-c1ccc(OC)c(=O)cc1C(NC(C)=O)CC2 (stereo not shown) [NSC 354975] |  |  | −0.6043 |
| O=C(/C=C/c1ccc(Cl)cc1)c1ccccc(=O)c1O [NSC 356777] |  | 0.4021 |  |
| CCN(CC)CC[n+]1ccc2c(C)c3[nH]c4ccccc4c3c(C)c2c1 [NSC 359449] |  |  | −0.7108 |
| Cc1ccc(S(=O)(=O)O)cc1.N/C(=N\N=C/c1cc(Br)cc(Br)c1O)NO [NSC 371168] |  | 0.3643 |  |
| COc1c(OC(C)=O)c(OC(C)=O)cc2c1-c1ccc(SC)c(=O)cc1C(NC(C)=O)CC2 (stereo not shown) [NSC 374980] |  |  | −0.5590 |
| Nc1nc(N)c2nc(CNc3ccc(C(=O)NC(CCC(=O)O)C(=O)O)cc3F)cnc2n1.O=C(O)C(F)(F)F (stereo not shown) [NSC 607301] |  | 0.3523 |  |
| CCOC(=O)NC1CC2CCC1(OC)C=C2C (stereo not shown) [NSC 617278] |  | 0.424 |  |
| COc1ccc2nc3c(C(=O)NCCN(C)C)cccc3cc2c1.Cl [NSC 617959] |  | 0.3586 |  |
| Cc1cc(C(=O)NCCN(C)C)c2nc3ccccc3cc2c1.Cl [NSC 617961] |  | 0.423 |  |
| Cc1ccc2nc3c(C(=O)NCCN(C)C)cccc3cc2c1.Cl [NSC 617963] |  | 0.5317 |  |
| CN(C)CCNC(=O)c1cc(Cl)cc2cc3ccccc3nc12.Cl [NSC 617966] |  | 0.3715 |  |
| CN(C)c1ccc(/C=C2\C[N+](C)(C)C/C(=C\c3ccc(N(C)C)cc3)C2=O)cc1.[I-] [NSC 618757] |  |  | −0.6081 |
| CSc1nc2nn(Cc3ccccc3)cc2c(=O)[nH]1 [NSC 622927] |  | 0.4001 |  |
| CNC(=O)C(C)C1CCC2(C)C=CC(=O)C(C)=C2C1O (stereo not shown) [NSC 623069] |  | 0.459 |  |
| O=C(N[C@@H](c1ccccc1)[C@@H](O)C(=O)OCc1ccc2c(c1)OCO2)c1ccccc1 [NSC 625349] |  | 0.3935 |  |
| O=[Se](=O)c1ccccc1.O=[Se](=O)c1ccccc1.[Cu] [NSC 626670] |  | 0.4177 |  |
